Laboratory results: patent US20070142378A1, “Method of treating restless legs syndrome and/or periodic limb movement disorder with (2s,3s) 2-(3-chlorophenyl)-3,5,5-trimethyl-2-morpholinol” (Smith Kline Beecham Corporation, priority 2003, published 2007)
Counter-ions that a name gives are not always drawn.

How the values were obtained:
[1] = tested on: cell-lines expressing human monoamine transporters; test: Compound-induced cytotoxicity in the transporter-expressing cells; format: cell-based; conditions: at any of the concentrations causing reuptake inhibition
[2] = target: T1, dopamine transporter (DAT) (Homo sapiens, UniProt Q01959); test: Dopamine transporter (DAT) receptor occupancy study, PET with 11C-βCIT-FE; format: in vivo; conditions: for DAT receptor occupancy: Part A, healthy male volunteers, PET 2.5 hours after initiation of dosing; for average DAT receptor occupancy: Part B, 60 mg modified release oral once daily for 6 days
T1 construct: from tissue; host or cells: striatum of healthy male volunteers, in vivo PET with 11C-βCIT-FE
T1 sequence (Q01959 whole entry): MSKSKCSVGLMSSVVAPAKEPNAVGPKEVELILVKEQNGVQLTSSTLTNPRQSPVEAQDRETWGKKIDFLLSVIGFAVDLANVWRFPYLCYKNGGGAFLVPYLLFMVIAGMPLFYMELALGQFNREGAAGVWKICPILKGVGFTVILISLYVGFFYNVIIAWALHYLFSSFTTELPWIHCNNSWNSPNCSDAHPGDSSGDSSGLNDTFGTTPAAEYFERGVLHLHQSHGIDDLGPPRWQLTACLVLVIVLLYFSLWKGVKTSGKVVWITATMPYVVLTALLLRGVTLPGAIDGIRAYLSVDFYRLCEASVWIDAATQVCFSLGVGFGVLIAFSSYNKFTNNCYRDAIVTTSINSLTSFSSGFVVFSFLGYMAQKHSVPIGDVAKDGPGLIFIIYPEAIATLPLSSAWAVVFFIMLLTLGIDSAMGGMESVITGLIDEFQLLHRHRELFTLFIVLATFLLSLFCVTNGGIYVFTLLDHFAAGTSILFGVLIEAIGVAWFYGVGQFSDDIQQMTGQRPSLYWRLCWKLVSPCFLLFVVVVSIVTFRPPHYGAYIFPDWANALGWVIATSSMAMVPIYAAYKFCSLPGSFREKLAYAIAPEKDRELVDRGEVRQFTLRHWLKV
Description: The study was conducted in two parts. Part A utilized positron emission tomography (PET) to characterize the concentration-percent occupancy relationship with respect to the dopamine transporter (DAT) after dosing with intravenous compound of formula (I) to pseudo-steady-state. Part B utilized PET to evaluate the time course of occupancy at the dopamine transporter following steady-state dosing of the compound of formula (I) via a modified release oral formulation. The tracer used in this study to assess the occupancy at the DAT was ^11C-βCIT-FE.
Part A. Six healthy male volunteers each received a 20.6 mg intravenous dose of the compound of formula (I) administered via a 2-hour loading infusion followed by a 2-hour maintenance infusion to achieve pseudo-steady-state. Each subject then received two additional doses (61.8 mg and 91.2 mg) of the compound of formula (I), with each dose separated by 3 weeks. A baseline PET scan was performed between 1 and 7 days prior to first dosing with formula (I), and then each post-dose PET scan performed 2.5 hours after the initiation of each of the three dosing regimens.
The concentrate solution for infusion was formulated to contain 10 mg free base equivalent per mL as the hydrochloride salt of the compound of formula (I), and consisted of a clear, colorless solution, pH adjusted to approximately 4.5, buffered with 50 mmol citrate buffer. The product was diluted to a total volume of 250 mL with 0.9% weight-to-volume ratio (w/v) sodium chloride injection prior to being administered.
Part B. Six healthy male volunteers received 60 mg of the compound of formula (I) via a modified release oral formulation once daily for 6 days in order to achieve steady-state by the last day. Four ^11C-βCIT-FE PET scans were performed for each subject, the first between 1 and 7 days prior to dosing and the remaining three at 6, 12 and 24 hours following the final dose on Day 6. The oral formulations were uncoated tablets, containing 20 mg and 40 mg of the compound of formula (I) as the hydrochloride salt details of the formulations are set out below as Examples 6 and 7 (prepared by an analogous method to Examples 1 to 5 above).

[3] = target: T2, noradrenaline (NA) uptake, synaptosomes from rat hypothalamus (Rattus norvegicus, UniProt Q63380); test: In vitro synaptosomal uptake of [3H]-NA; format: biochemical
T2 construct: Synaptosomes for use in obtaining in vitro uptake data were prepared from hypothalamus or striatum by gently homogenizing the tissue; from tissue; host or cells: rat hypothalamus synaptosomes (1100 x g supernatant)
T2 sequence (Q63380 1-617): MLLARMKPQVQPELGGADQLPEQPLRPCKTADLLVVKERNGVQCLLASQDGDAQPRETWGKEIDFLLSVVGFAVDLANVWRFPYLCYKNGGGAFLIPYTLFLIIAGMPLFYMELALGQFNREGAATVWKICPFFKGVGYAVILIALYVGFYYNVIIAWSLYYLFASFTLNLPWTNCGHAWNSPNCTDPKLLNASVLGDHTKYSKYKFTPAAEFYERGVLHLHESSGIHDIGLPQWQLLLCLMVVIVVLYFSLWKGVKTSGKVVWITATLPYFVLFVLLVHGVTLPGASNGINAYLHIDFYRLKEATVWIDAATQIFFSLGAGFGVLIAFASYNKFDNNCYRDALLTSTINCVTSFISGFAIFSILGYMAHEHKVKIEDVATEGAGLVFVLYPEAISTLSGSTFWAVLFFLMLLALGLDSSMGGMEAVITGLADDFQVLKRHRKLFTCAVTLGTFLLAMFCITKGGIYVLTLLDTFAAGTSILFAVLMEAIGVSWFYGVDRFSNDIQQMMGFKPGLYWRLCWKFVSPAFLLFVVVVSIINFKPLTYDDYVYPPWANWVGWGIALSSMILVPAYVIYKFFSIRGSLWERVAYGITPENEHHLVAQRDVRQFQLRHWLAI
Description: In vitro uptake was determined, as reported previously, using synaptosomes prepared from rat caudoputamen (for dopamine uptake) and hypothalamus (for NA and serotonin uptake) using [^3H]-dopamine, [^3H]-NA and [^3H]-serotonin as transport substrates, respectively. See Eckhardt, S. B., R. A. Maxwell, and R. M. Ferris, A Structure-Activity Study of the Transport Sites for the Hypothalamic and Striatal Catecholamine Uptake Systems. Similarities and differences. Molecular Pharmacology, 21: p. 374-9,1982
Synaptosomes for use in obtaining in vitro uptake data were prepared from hypothalamus or striatum by gently homogenizing the tissue in a 0.3 M sucrose/25 mM Tris pH 7.4 buffer containing iproniazid phosphate to inhibit monoamine oxidase. The homogenate was centrifuged at 1100×g at 4° C. for 10 min and the supernatant was used for uptake studies. […] Under these conditions uptake was linear with respect to both for substrate and tissue (with <5% total substrate transported). Non-specific uptake was defined as uptake at 0° C. [^3H]-substrate, which had been transported into synaptosomes, was separated from free [^3H]-substrate by filtration over GF/B filters and washing with cold Krebs-Henseleit buffer. The filters were counted for tritum in a liquid scintillation spectrometer.

[4] = target: T3, serotonin uptake, synaptosomes from rat hypothalamus (Rattus norvegicus, UniProt P31652); test: In vitro synaptosomal uptake of [3H]-serotonin; format: biochemical; conditions: at 30 μM
T3 construct: Synaptosomes for use in obtaining in vitro uptake data were prepared from hypothalamus or striatum by gently homogenizing the tissue; from tissue; host or cells: rat hypothalamus synaptosomes
T3 sequence (P31652 whole entry): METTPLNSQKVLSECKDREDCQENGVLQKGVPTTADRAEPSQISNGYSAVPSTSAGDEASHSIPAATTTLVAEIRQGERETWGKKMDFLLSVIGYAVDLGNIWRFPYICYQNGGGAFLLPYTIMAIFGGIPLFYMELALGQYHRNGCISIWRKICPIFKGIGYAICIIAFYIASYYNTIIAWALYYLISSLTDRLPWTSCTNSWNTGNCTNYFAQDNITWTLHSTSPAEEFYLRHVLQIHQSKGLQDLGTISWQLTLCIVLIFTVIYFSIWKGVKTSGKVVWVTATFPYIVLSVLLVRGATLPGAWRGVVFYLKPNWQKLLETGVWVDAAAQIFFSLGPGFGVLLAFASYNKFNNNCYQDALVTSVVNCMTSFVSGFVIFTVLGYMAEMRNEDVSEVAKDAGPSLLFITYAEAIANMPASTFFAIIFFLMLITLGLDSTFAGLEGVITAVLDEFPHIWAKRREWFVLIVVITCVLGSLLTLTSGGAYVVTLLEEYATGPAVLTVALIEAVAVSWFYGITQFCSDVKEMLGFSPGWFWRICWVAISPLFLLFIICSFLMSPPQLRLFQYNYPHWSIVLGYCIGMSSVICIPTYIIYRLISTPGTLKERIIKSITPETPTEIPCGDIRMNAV
Description: Similarities and differences. Molecular Pharmacology, 21: p.

Row | SMILES | cytotoxicity [1] | DAT receptor occupancy ([2]; 20.6 mg intravenous) | DAT receptor occupancy ([2]; 61.8 mg intravenous) | DAT receptor occupancy ([2]; 91.2 mg intravenous) | average DAT receptor occupancy ([2]; 6 hours after the last dose) | average DAT receptor occupancy ([2]; during the following 6 hours (12 hour scan)) | IC50 [3] | inhibition of serotonin uptake [4]
1 | C[C@@H]1NC(C)(C)CO[C@@]1(O)c1cccc(Cl)c1 [Formula (I).HCl, (+)-(2S, 3S)2-(3-chlorophenyl)-3,5,5-trimethyl-2-morpholinol hydrochloride] | No cytotoxicity was observed | – | – | – | – | – | – | –
2 | C[C@@H]1NC(C)(C)CO[C@@]1(O)c1cccc(Cl)c1 [Formula (I), (+)-(2S,3S)-2-(3-chlorophenyl)-3,5,5-trimethyl-2-morpholinol] | – | 14±0.38% | 37±8.0% | 47±6.8% | 29±5.3% | 27±11.3% | 1100 nM | no inhibition
